Read-outs that look alike come from different tables or passages of the source.
What was measured:
prostaglandin synthetase = molecular target: T1, prostaglandin synthetase (Ovis aries, UniProt P05979); settings: in words; cited from earlier work
T1 sequence (P05979 25-600): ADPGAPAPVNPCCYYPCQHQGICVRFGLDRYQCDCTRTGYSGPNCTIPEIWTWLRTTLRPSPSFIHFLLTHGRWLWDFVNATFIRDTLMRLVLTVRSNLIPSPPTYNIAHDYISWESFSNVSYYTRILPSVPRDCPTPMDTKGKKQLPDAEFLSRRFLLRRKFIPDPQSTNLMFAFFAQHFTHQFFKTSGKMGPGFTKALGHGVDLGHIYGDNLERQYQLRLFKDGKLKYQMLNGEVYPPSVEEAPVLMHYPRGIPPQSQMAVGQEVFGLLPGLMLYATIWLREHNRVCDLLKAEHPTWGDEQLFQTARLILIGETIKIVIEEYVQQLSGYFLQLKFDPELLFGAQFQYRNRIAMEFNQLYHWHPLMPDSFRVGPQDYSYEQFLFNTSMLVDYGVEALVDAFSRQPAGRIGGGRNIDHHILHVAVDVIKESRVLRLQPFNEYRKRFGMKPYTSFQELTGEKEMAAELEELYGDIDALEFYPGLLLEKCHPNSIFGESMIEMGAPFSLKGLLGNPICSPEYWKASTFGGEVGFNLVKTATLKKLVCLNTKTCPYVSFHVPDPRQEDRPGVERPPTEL

[1] = tested on: carrageenan-induced edema in the hind paw of normal and adrenalectomized rats; experiment: carrageenan paw edema in normal and adrenalectomized rats; type: in vivo, rat; settings: oral 5 mg/kg
Protocol: (§1) Vehicle alone is administered as a control. Sixty minutes after drug administration edema is induced by an injection of 0.1 ml. of a 1% carrageenan solution is saline into the subplantar tissue of the rat's right hind paw. Two minutes later, paw volume is measured volumetrically with a plethysmograph and again 3 hours later. The mean volume of swelling for the control group is calculated and compared to the test groups. Percent change in paw edema is calculated and analyzed statistically (unpaired, Student's t-test).
Normal rats received the same doses as adrenalectomized rats.

[2] = tested on: rat stomach (gastric ulcers, gastric swelling); type: in vivo, rat (male Charles River, Sprague-Dawley); settings: for Number of Animals With Gastric Swelling / Number of Animals With Gastric Ulcers: rat, 4 hours after dosing
Protocol: The rats are divided into groups 6-10 and dosed by the oral route with test compound, on a mg/kg. body weight basis, or vehicle control, 0.5% carboxymethylcellulose, in a volume of 3 ml. per rat. Four hours after dosing, the rats are decapitated and exsanguinated. Stomachs are removed and examined for gastric swelling and then opened and washed for visual inspection of gastric ulcers. Only one lesion or gastric bleeding is necessary for a positive response. Data is reported quantally.

[3] = tested on: established adjuvant arthritis in rats; experiment: established adjuvant arthritis, dosing on days 16, 17 and 18; settings: rat
Protocol: (§2) Polyarthritis is induced in groups of 6-10 Sprague-Dawley rats weighing between 180-220 g. by a subcutaneous injection into the right paw of dessicated Mycobacterium butyricum or tuberculosis (0.5 mg/0.1 ml.) suspended in light mineral oil. […] Both hind paw volumes (ml.) are measured by mercury plethysmograph on day 0 or at the time of injection of the complete adjuvant. Increases in paw volume (viz. edema) are determined for both paws on days 4 and 16. The change in body weight from day 0 to day 16 is also calculated. Statistical analysis of differences in paw edemas and body weight is performed by using the unpaired. Student's t-test.
The changes in left paw edema are measured at the end of 19 days, 23 days and 30 days.

[4] = tested on: rat stomach (gastric ulcers, gastric swelling); settings: especially in long-term therapy; in words; cited from earlier work
[5] = tested on: carrageenan-induced edema in the hind paw of the rat; experiment: rat carrageenan edema test (hind paw); type: in vivo, rat (male Sprague-Dawley); settings: for Change in paw volume (ml) from 0-3 hr: mean ± S.E.; for % Change in paw edema: vs control
Protocol: as §1

[6] = tested on: prostaglandin synthesis in gastric mucosa; settings: background; in words; cited from earlier work
[7] = tested on: polyarthritis induced by Mycobacterium butyricum or tuberculosis in rats; settings: rat; for Increase in Left Paw Volume (ml.) 0-16 days / Increase in Right Paw Volume (ml.) 0-4 days: mean ± S.E.
Protocol: as §2

[8] = background; in words; cited from earlier work
[9] = oral 0.33 mg/kg, days 16, 17, 18
[10] = oral 1.00 mg/kg, days 16, 17, 18
[11] = oral 3.00 mg/kg, days 16, 17, 18
[12] = oral 0.1 mg/kg daily, Table 3 group a
[13] = oral 0.3 mg/kg daily, Table 3 group a
[14] = oral 1.0 mg/kg daily, Table 3 group a
[15] = oral 3.0 mg/kg daily, Table 3 group a
[16] = oral 25.0 mg/kg daily, Table 3 group b

In the case of `COc1ccc2c(c1)c(CC(=O)O)c(C)n2C(=O)c1ccc(Cl)cc1` [Indomethacin, indomethacin, reference compound], the “appreciable effects on prostaglandin synthetase activity” value (prostaglandin synthetase) is listed as “appreciable effects on prostaglandin synthetase activity”, the “% Inhibition” value ([1]; Adrenalectomized Rats) is listed as 59% and the “Edema (ml) ± S.E.” value ([1]; Adrenalectomized Rats) is listed as 0.42 ± .09 mL. The “% Inhibition” value ([1]; Normal Rats) was 60%, the “Mean Edema (ml) ± S.E.” value ([1]; Normal Rats) was 0.42 ± .09 mL and the “effects on the gastric tract” value ([2]; dosage levels indicated for treatment of inflammatory conditions) was “significant effects on the gastric tract”. For the same compound, the “Number of Animals With Gastric Swelling” value ([2]; oral 2.5 mg/kg) was 0/10, the “Number of Animals With Gastric Ulcers” value ([2]; oral 2.5 mg/kg) was 0/9 and the “Number of Animals With Gastric Swelling” value ([2]; oral 5.0 mg/kg) was 0/10. For the same compound, the “Number of Animals With Gastric Ulcers” value ([2]; oral 5.0 mg/kg) was 9/10, the “Number of Animals With Gastric Swelling” value ([2]; oral 10.0 mg/kg) was 0/10 and the “Number of Animals With Gastric Ulcers” value ([2]; oral 10.0 mg/kg) was 10/10. For the same compound, the “rats died by the 23rd day” value ([3]; 3.00 mg/kg, days 16, 17 and 18) was “six out of ten rats had died”, the “% Change from Control, left paw edema (day 0-19)” value (shortened to “% Change … (day 0-19)”) [3, 9] was -31% and the “% Change from Control, left paw edema (day 0-23)” value [3, 9] was “+6%”. The “% Change from Control, left paw edema (day 0-30)” value [3, 9] was -6%, the “Increase in left paw edema ml. (day 0-19)” value (“Increase … (day 0-19)” for short) [3, 9] was 0.70 ± 0.11 mL and the “Increase in left paw edema ml. (day 0-23)” value [3, 9] was 1.02 ± 0.14 mL. The “Increase in left paw edema ml. (day 0-30)” value [3, 9] was 1.41 ± 0.20 mL, the “% Change … (day 0-19)” value [3, 10] was -40% and the “% Change from Control, left paw edema (day 0-23)” value [3, 10] was “+4%”. For the same compound, the “% Change from Control, left paw edema (day 0-30)” value [3, 10] was -22%, the “Increase … (day 0-19)” value [3, 10] was 0.62 ± 0.05 mL and the “Increase in left paw edema ml. (day 0-23)” value [3, 10] was 1.00 ± 0.06 mL. The “Increase in left paw edema ml. (day 0-30)” value [3, 10] was 1.18 ± 0.10 mL, the “% Change … (day 0-19)” value [3, 11] was -60% and the “Increase … (day 0-19)” value [3, 11] was 0.41 ± 0.06 mL. The “deaths (day 0-23)” value [3, 11] was 6/10, the “deaths (day 0-30)” value [3, 11] was 6/10 and the gastric ulcerogenicity [4] was “proven gastric ulcerogens”. For the same compound, the “estimated ED50 (carrageenan paw edema)” value ([5]; oral) was roughly 2.7 mg/kg, the “Change in paw volume (ml) from 0-3 hr” value ([5]; oral 1 mg/kg, Table 1 group b) was 0.65 ± 0.06 mL and the “% Change in paw edema” value ([5]; oral 1 mg/kg, Table 1 group b) was -36%. For the same compound, the “Change in paw volume (ml) from 0-3 hr” value ([5]; oral 3 mg/kg, Table 1 group b) was 0.50 ± 0.07 mL, the “% Change in paw edema” value ([5]; oral 3 mg/kg, Table 1 group b) was -51% and the “Change in paw volume (ml) from 0-3 hr” value ([5]; oral 5 mg/kg, Table 1 group e) was 0.54 ± 0.08 mL. The “% Change in paw edema” value ([5]; oral 5 mg/kg, Table 1 group e) was -53%, the “Change in paw volume (ml) from 0-3 hr” value ([5]; oral 9 mg/kg, Table 1 group b) was 0.32 ± 0.02 mL and the “% Change in paw edema” value ([5]; oral 9 mg/kg, Table 1 group b) was -69%. For the same compound, the “inhibitory effect on prostaglandin synthesis in gastric mucosa” value [6] was “marked inhibitory effect on prostaglandin synthesis in gastric mucosa”, the “% Change of Left Paw Edema at Day 16” value [7, 12] was “+5.1%” and the “% Change of Right Paw Edema at Day 4” value [7, 12] was -31%. The “Change In Body Weight (mean ± S.E.) 0-16 days” value (from here on “Change In Body Weight”) [7, 12] was 16.9 ± 9.0, the “Increase in Left Paw Volume (ml.) 0-16 days” value (“Increase in Left Paw Volume” below) [7, 12] was 0.82 ± .12 mL and the “Increase in Right Paw Volume (ml.) 0-4 days” value (“Increase in Right Paw Volume” for short) [7, 12] was 1.07 ± .15 mL. The “% Change of Left Paw Edema at Day 16” value [7, 13] was -33%, the “% Change of Right Paw Edema at Day 4” value [7, 13] was -30% and the “Change In Body Weight” value [7, 13] was 25.7 ± 7.8. For the same compound, the “Increase in Left Paw Volume” value [7, 13] was 0.52 ± .07 mL, the “Increase in Right Paw Volume” value [7, 13] was 1.09 ± .06 mL and the “% Change of Left Paw Edema at Day 16” value [7, 14] was -55%. The “% Change of Right Paw Edema at Day 4” value [7, 14] was -42%, the “Change In Body Weight” value [7, 14] was 36.5 ± 7.9 and the “Increase in Left Paw Volume” value [7, 14] was 0.35 ± .03 mL. For the same compound, the “Increase in Right Paw Volume” value [7, 14] was 0.90 ± .11 mL, the “% Change of Left Paw Edema at Day 16” value [7, 15] was -65% and the “% Change of Right Paw Edema at Day 4” value [7, 15] was -37%. For the same compound, the “Change In Body Weight” value [7, 15] was 49.8 ± 6.2, the “Increase in Left Paw Volume” value [7, 15] was 0.27 ± .03 mL and the “Increase in Right Paw Volume” value [7, 15] was 0.99 ± .05 mL. For the same compound, the “estimated ED50 (adjuvant arthritis test)” value ([7]; oral, daily) was roughly 0.9 mg/kg.

For `CCCCC1C(=O)N(c2ccccc2)N(c2ccccc2)C1=O` [Phenylbutazone, phenylbutazone, reference compound], the bone marrow depression [8] is listed as “can cause bone marrow depression”, the “% Change of Left Paw Edema at Day 16” value [7, 16] is listed as -39% and the “% Change of Right Paw Edema at Day 4” value [7, 16] is listed as -44%. The “Change In Body Weight” value [7, 16] was 24.0 ± 6.3, the “Increase in Left Paw Volume” value [7, 16] was 0.45 ± .13 mL and the “Increase in Right Paw Volume” value [7, 16] was 1.04 ± .05 mL.

Source: US4267192A, “Method for treating inflammation” (priority 1980, dated 1981)
